IC50 data for 19 molecules are collected here from patent US10752615B2, “Spirocyclic containing compounds and pharmaceutical uses thereof” (GB005, Inc., priority 2016, dated 2020).

Molecules are shown by their SMILES.

The IC50 is the concentration needed to halve the response being measured. Read a high IC50 as weaker potency in that assay.

Chain of BTK (Q06187 whole entry): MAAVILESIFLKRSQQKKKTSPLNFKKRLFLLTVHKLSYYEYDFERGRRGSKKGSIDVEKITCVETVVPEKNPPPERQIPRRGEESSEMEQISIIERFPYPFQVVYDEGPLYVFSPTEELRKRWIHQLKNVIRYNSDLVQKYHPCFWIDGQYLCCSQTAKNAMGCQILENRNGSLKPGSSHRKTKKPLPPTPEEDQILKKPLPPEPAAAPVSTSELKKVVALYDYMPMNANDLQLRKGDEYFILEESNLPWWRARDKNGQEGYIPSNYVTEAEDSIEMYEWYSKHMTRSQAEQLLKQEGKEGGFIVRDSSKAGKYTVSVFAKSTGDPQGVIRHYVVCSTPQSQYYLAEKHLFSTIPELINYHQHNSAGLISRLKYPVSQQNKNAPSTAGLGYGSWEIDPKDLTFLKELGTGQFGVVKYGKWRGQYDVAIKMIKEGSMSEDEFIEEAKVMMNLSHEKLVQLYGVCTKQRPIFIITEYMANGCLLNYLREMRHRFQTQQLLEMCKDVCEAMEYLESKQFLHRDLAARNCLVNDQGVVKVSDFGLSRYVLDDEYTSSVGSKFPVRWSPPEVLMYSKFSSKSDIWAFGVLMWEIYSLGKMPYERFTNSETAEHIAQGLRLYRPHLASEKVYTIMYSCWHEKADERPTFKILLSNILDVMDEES

The assay has as its target BTK (Homo sapiens (Human), UniProt Q06187). Kind of assay: Kinase inhibition assay (Nanosyn, microfluidic detection), BTK. The class given is biochemical. Conditions: 1 mM ATP, 3 hours at 25° C. How it is done: The in vitro kinase assays were performed at Nanosyn (Santa Clara, Calif.) utilizing microfluidic detection technology. The test compounds were serially pre-diluted in DMSO and added, by the acoustic dispensing (Labcyte® 550), directly to 384 well assay plates into 10 uL of a buffer with enzyme (ITK, TXK, BTK or TEC) comprising: 100 mM HEPES, pH7.5, 5 mM MgCl2, 0.1% bovine serum albumin, 1 mM DTT, 0.01% Triton X-100 and the enzyme. Final DMSO concentration was maintained at 1% in all samples, including the controls. The reactions were initiated by addition of ATP (1 mM final concentration) and the fluorescently labeled peptide substrate to a final concentration of 1 uM, and incubated for 3 hours at 25° C. Following incubation, the reactions were quenched by addition of 40 μL of termination buffer (100 mM HEPES, pH7.5, 0.01% Triton X-100, 50 mM EDTA). Terminated plates were analyzed using Caliper LabChip® 3000 microfluidic electrophoresis instrument (Caliper Life Sciences/Perkin Elmer). The enzymatic modification of the peptide substrate (phosphorylation) results in a change of net charge enabling electrophoretic separation of product from substrate. As substrate and product are separated by electrophoresis, two peaks of fluorescence are observed. Change in the relative fluorescence intensity of the substrate and product peaks was the parameter measured, reflecting enzyme activity. In the presence of inhibitor, the ratio between product and substrate is altered: signal of the product decreases, while the signal of the substrate increases. Activity in each test sample was determined as the product to sum ratio (PSR): P/(S+P), where P is the peak height of the product and S is the peak height of the […]. For each compound, enzyme activity was measured at 12 concentrations spaced by 3× dilution intervals. Negative control samples (0%-inhibition in the absence of inhibitor, DMSO only) and positive control samples (100%-inhibition, in the absence of enzyme or in the presence of control inhibitor) were assembled in replicates of four and were used to calculate %-inhibition values in the presence of compounds. Percent inhibition (Pinh) was determined using the following equation: Pinh=(PSR0%−PSRinh)/(PSR0%−PSR100%)*100, where PSRinh is the product sum ratio in the presence of inhibitor, PSR0% is the product sum ratio in the absence of inhibitor and PSR100% is the product sum ratio in 100%-inhibition control samples. To determine IC50 values, the inhibition curves (Pinh versus inhibitor concentration) were fitted by 4 parameter sigmoid dose-response model using XLfit software (IDBS).
For the molecule `C=CC(=O)N1CC[C@]2(C1)C[C@H](n1c(NC(=O)c3ccc(C(F)F)s3)nc3cc(CN[C@@H](C)C(C)(C)C)ccc31)C2` [Compound 2], the concentration for half-maximal inhibition (IC50) worked out at 1.01 nM.
The same measure for `C=CC(=O)N1CC[C@]2(C1)C[C@@H](n1c(NC(=O)c3ccc(C(F)F)s3)nc3cc(CN[C@@H](C)C(C)(C)C)ccc31)C2` [Compound 3]: 26.8 nM; for `C=CC(=O)N1CC[C@]2(C1)C[C@H](n1c(NC(=O)c3ccc(-c4cnco4)s3)nc3cc(CN[C@@H](C)C(C)(C)C)ccc31)C2` [Compound 4]: 0.64 nM.
Turning to `C=CC(=O)N1CC[C@]2(C1)C[C@H](n1c(NC(=O)c3cncs3)nc3cc(CN[C@@H](C)C(C)(C)C)ccc31)C2` [Compound 13], the concentration for half-maximal inhibition (IC50) is 1.8 nM.
`C=CC(=O)N1CC[C@]2(C1)C[C@H](n1c(NC(=O)c3ccc(C#N)cc3)nc3cc(CN[C@@H](C)C(C)(C)C)ccc31)C2` [Compound 19] registered a concentration for half-maximal inhibition (IC50) of 1.34 nM.
The same measure for `C=CC(=O)N1CC[C@]2(C1)C[C@H](n1c(NC(=O)c3ccns3)nc3cc(CN[C@@H](C)C(C)(C)C)ccc31)C2` [Compound 25]: 0.7 nM.
For `C=CC(=O)N1CC[C@]2(C1)C[C@H](n1c(NC(=O)c3ccc(C(F)F)s3)nc3cc(CN4CCOCC4)ccc31)C2` [Compound 27] the value was 2.59 nM; for `C=CC(=O)N1CC[C@]2(C1)C[C@H](n1c(NC(=O)c3ccc(C(C)(F)F)s3)nc3ccccc31)C2` [Compound 30], 2.11 nM; for `C=CC(=O)N1CC[C@]2(C1)C[C@H](n1c(NC(=O)c3ccc(C(F)F)s3)nc3cc(CNCC(C)(C)CO)ccc31)C2` [Compound 37], 0.95 nM.
Molecule `C=CC(=O)N1CC[C@]2(C1)C[C@H](n1c(NC(=O)c3ccc(-c4cnco4)s3)nc3cc(CN[C@H]4CC[C@H](O)CC4)ccc31)C2` [Compound 42] showed a concentration for half-maximal inhibition (IC50) of 0.53 nM.
For `C=CC(=O)N1CC[C@]2(C1)C[C@H](n1c(NC(=O)c3ccc(-c4cnco4)s3)nc3cc(CNCC(C)(C)CO)ccc31)C2` [Compound 44] the value was 0.66 nM; for `C=CC(=O)N1CC[C@]2(C1)C[C@H](n1c(NC(=O)c3ccc(-c4cnco4)s3)nc3cc(F)ccc31)C2` [Compound 57], 1.09 nM; for `C=CC(=O)N1CC[C@]2(C1)C[C@@H](n1c(NC(=O)c3ccc(-c4cnco4)s3)nc3cc(F)ccc31)C2` [Compound 68], 41.9 nM.
For `C=CC(=O)N1CC[C@]2(C1)C[C@H](n1c(NC(=O)c3ccc(-c4cc[nH]c(=O)c4)s3)nc3ccccc31)C2` [Compound 97] the value was 0.33 nM; for `C=CC(=O)N1CC[C@]2(C1)C[C@H](n1c(NC(=O)c3ccc(-c4cncc(N)c4)s3)nc3ccccc31)C2` [Compound 128], 0.63 nM; for `C=CC(=O)N1CC[C@]2(C1)C[C@H](n1c(NC(=O)c3ccc(C(F)(F)CO)s3)nc3ccccc31)C2` [Compound 130], 1.06 nM.
Molecule `C=CC(=O)N1CC[C@]2(C1)C[C@H](n1c(NC(=O)c3ccc(-c4ccnc(NC)c4)s3)nc3ccccc31)C2` [Compound 131] yielded an IC50 of 0.46 nM.
The same measure for `C=CC(=O)N1CC[C@]2(C1)C[C@H](n1c(NC(=O)c3ccc(-c4ccnc(N)n4)s3)nc3ccccc31)C2` [Compound 138]: 0.41 nM; for `C=CC(=O)N1CC[C@]2(C1)C[C@H](n1c(NC(=O)c3ccc(-c4ccnc(C)n4)s3)nc3ccccc31)C2` [Compound 149]: 0.68 nM.
